# Data taken from paper PMC6001238, “Iterative Chemical Engineering of Vancomycin Leads to Novel Vancomycin Analogs With a High in Vitro Therapeutic Index” (Frontiers in Microbiology, 2018).
# What was measured:
# VRE 39 = experiment: Resistance development, serial exposure to subinhibitory doses, 20 cycles; assay type: cell-based, Enterococcus faecalis; conditions: subinhibitory doses (MIC/2)
# Description: To monitor resistance development upon exposure to subinhibitory doses, the initial MIC of Vanc-39, Vanc-42 and daptomycin was determined against VRE 39. A new MIC assay was prepared using 1,000-fold diluted cells grown at MIC/2 (occasionally MIC/4 if growth in MIC/2 was too limited). This was repeated for 20 cycles and changes in MIC were monitored.
# MRSA = experiment: Time-kill curves, MRSA at 4x MIC; assay type: cell-based, Staphylococcus aureus; conditions: 1-24 h
# Description: Time-kill curves were determined based on the CLSI guidelines ([Clinical and Laboratory Standards Institute [CLSI], 1999]). Single colonies grown overnight at 37°C were resuspended in Ca^2+-adjusted (0.05 mg/mL) Mueller Hinton broth up to an optical density (625 nm) of 0.08–00.10 (corresponding to the 0.5 McFarland standard), followed by a 10-fold dilution in the same broth. Subsequently, 0.2 mL inoculum was added to 1.7 mL Ca^2+-adjusted (0.05 mg/mL) Mueller Hinton broth, followed by addition of the antibacterial compound (0.1 mL). The final concentration of the antibacterial compound corresponded to the 4x MIC value for that compound. For the antibiotic-free control, the compound was replaced by an equal volume of ultrapure water. The final inoculum concentration was approximately 10^6 CFU/mL. The cultures were continuously shaken at 37°C. After 1, 2, 4, 6, 8, and 24 h, a 0.1 mL aliquot was removed, serially diluted in cold 0.9% w/v NaCl and plated on BHI (VRE) and LB (MRSA) agar plates. Plates were incubated overnight at 37°C and colonies were counted.
# VRE39 = experiment: MIC in the absence and presence of 10 µM vancomycin (vanA induction); assay type: cell-based, Enterococcus faecalis
# Description: (§1) The minimum inhibitory concentration (MIC) was determined using the broth microdilution method according to the antimicrobial susceptibility testing standards of the clinical and laboratory standards institute ([Clinical and Laboratory Standards Institute [CLSI], 2012]). Ultrapure water and non-inoculated broth were used as controls. In one case, a final concentration of 10 μM vancomycin was included with the vancomycin analog or control antibiotic.
# [1] = test system: lipid II with terminal D-Ala-D-Lac; design: method as in Arthur and Courvalin, 1993; Walsh et al., 1996; conditions: D-Ala-D-Lac versus D-Ala-D-Ala termini ref Arthur and Courvalin, 1993; Walsh et al., 1996; cited from earlier work
# E. coli XL-1 blue MRF' = experiment: MIC, broth microdilution, E. coli XL-1 blue MRF'; assay type: cell-based, Escherichia coli
# Description: as §1
# B. subtilis PSB3 = experiment: MIC, broth microdilution, B. subtilis PSB3; assay type: cell-based, Bacillus subtilis
# Description: as §1
SMILES,change in MIC upon serial exposure (VRE 39),time-kill curve character (MRSA),"MIC (VRE39; VRE39, 0 µM vancomycin) [µM]","MIC (VRE39; VRE39, 10 μM vancomycin added) [µM]",other results
"CCCCCCCCCC(=O)N[C@@H](Cc1c[nH]c2ccccc12)C(=O)N[C@H](CC(N)=O)C(=O)N[C@@H](CC(=O)O)C(=O)N[C@@H]1C(=O)NCC(=O)N[C@@H](CCCN)C(=O)N[C@@H](CC(=O)O)C(=O)N[C@H](C)C(=O)N[C@@H](CC(=O)O)C(=O)NCC(=O)N[C@H](CO)C(=O)N[C@@H]([C@H](C)CC(=O)O)C(=O)N[C@@H](CC(=O)c2ccccc2N)C(=O)O[C@@H]1C [Daptomycin, reference compound]",eightfold higher concentration,complete elimination after 24 h,,,
"CN(C)c1cc(NC(=O)CNC(C)(C)C)c(O)c2c1C[C@H]1C[C@H]3[C@H](N(C)C)C(O)=C(C(N)=O)C(=O)[C@@]3(O)C(O)=C1C2=O [Tigecycline, reference compound]",,typical bacteriostatic time-kill curve,,,
CNC(CC(C)C)C(=O)NC1C(=O)NC(CC(N)=O)C(=O)NC2C(=O)NC3C(=O)NC(C(=O)NC(C(=O)NCCCNC(=O)c4cc5ccccc5[nH]4)c4cc(O)cc(O)c4-c4cc3ccc4O)C(O)c3ccc(c(Cl)c3)Oc3cc2cc(c3OC2OC(CO)C(O)C(O)C2OC2CC(C)(N)C(O)C(C)O2)Oc2ccc(cc2Cl)C1O (stereo not drawn) [Vanc-24],,quickest onset of killing,3.13,6.25,
CCCCc1ccc(NC(=O)CNC(=O)[C@H]2NC(=O)[C@H]3NC(=O)[C@H](NC(=O)[C@@H]4NC(=O)[C@H](CC(N)=O)NC(=O)[C@H](NC(=O)[C@@H](CC(C)C)NC)[C@H](O)c5ccc(c(Cl)c5)Oc5cc4cc(c5O[C@@H]4O[C@H](CO)[C@@H](O)[C@H](O)[C@H]4O[C@H]4C[C@](C)(N)[C@H](O)[C@H](C)O4)Oc4ccc(cc4Cl)[C@H]3O)c3ccc(O)c(c3)-c3c(O)cc(O)cc32)cc1 [Vanc-39],oscillated between the original value and a twofold increase,,1.56,6.25,
CN[C@H](CC(C)C)C(=O)N[C@H]1C(=O)N[C@@H](CC(N)=O)C(=O)N[C@H]2C(=O)N[C@H]3C(=O)N[C@H](C(=O)N[C@H](C(=O)NCC(=O)Nc4ccc5c(c4)Cc4ccccc4-5)c4cc(O)cc(O)c4-c4cc3ccc4O)[C@H](O)c3ccc(c(Cl)c3)Oc3cc2cc(c3O[C@@H]2O[C@H](CO)[C@@H](O)[C@H](O)[C@H]2O[C@H]2C[C@](C)(N)[C@H](O)[C@H](C)O2)Oc2ccc(cc2Cl)[C@H]1O [Vanc-42],oscillated between the original value and a twofold increase,,1.56,1.56,
CNC(CC(C)C)C(=O)NC1C(=O)NC(CC(N)=O)C(=O)NC2C(=O)NC3C(=O)NC(C(=O)NC(C(=O)NCCCNC(=O)c4ccc5cc(NS(=O)(=O)c6ccc(C(C)C)cc6)ccc5c4)c4cc(O)cc(O)c4-c4cc3ccc4O)C(O)c3ccc(c(Cl)c3)Oc3cc2cc(c3OC2OC(CO)C(O)C(O)C2OC2CC(C)(N)C(O)C(C)O2)Oc2ccc(cc2Cl)C1O (stereo not drawn) [Vanc-66],,,3.13,3.13,
CN[C@H](CC(C)C)C(=O)N[C@H]1C(=O)N[C@@H](CC(N)=O)C(=O)N[C@H]2C(=O)N[C@H]3C(=O)N[C@H](C(=O)N[C@H](C(=O)O)c4cc(O)cc(O)c4-c4cc3ccc4O)[C@H](O)c3ccc(c(Cl)c3)Oc3cc2cc(c3O[C@@H]2O[C@H](CO)[C@@H](O)[C@H](O)[C@H]2O[C@H]2C[C@](C)(N)[C@H](O)[C@H](C)O2)Oc2ccc(cc2Cl)[C@H]1O [Vancomycin],,,,,"reduced affinity for vancomycin [1]: 1000 fold; MICvanc/MICi (E. coli XL-1 blue MRF'; E. coli XL-1 blue MRF', ratio of MIC of vancomycin and MIC of analogue): 1; MIC (E. coli XL-1 blue MRF'; Escherichia coli): 100 µM; MIC (B. subtilis PSB3; Bacillus subtilis): 0.39 µM; MICvanc/MICi (B. subtilis PSB3; ratio of MIC of vancomycin and MIC of analogue): 1; MIC (VRE39; Enterococcus faecalis, VRE39, 0 µM vancomycin): 800 µM; MIC (VRE39; Enterococcus faecalis, VRE39, 10 μM vancomycin added): 400 µM"
